Reference: US6492578B1, “Expression of herbicide tolerance genes in plant plastids” (Calgene LLC, priority 1998, dated 2002)
Like-named read-outs stand apart in the source and are kept apart here.

Key:
[1] = system: 5177 transformed tobacco lines and control lines; assay: Norflurazon resistance analysis (watering with Norflurazon solution); type: in vivo; conditions: 3 μM Norflurazon solution
Method: An experiment was set up to determine the efficacy of the Crt I trait with respect to resistance to the herbicide Norflurazon. Three 5177 transformed lines, 74-1B-P, 74-2-A, and 74-7-C and three control lines were planted. Plants were grown for seven weeks and then watered with a 3 μM Norflurazon solution. Plants negative for the presence of the crtI plastid-borne gene were bleached by Norflurazon treatment, positive plants stayed green and continued to grow.

[2] = system: Homoplasmic tobacco plants of the line 38773-6; assay: Whole plant glyphosate spray test (track sprayer); type: in vivo
Method: (§1) Homoplasmic tobacco plants of the line 38773-6 are sprayed with glyphosate using a track sprayer at concentrations corresponding to 0 oz/acre, 16 oz/acre, 32 oz/acre and 64 oz/acre to test for whole plant tolerance. Plant height was measured before and after s praying with glyphosate. The vegetative injury data was collected two weeks after spraying, while the reproductive injury data was collected at plant maturity.
(§2) Tolerance is characterized by the continued growth and greening of tissues sprayed with glyphosate. However, as the concentration of glyphosate applied increased, there was a corresponding increase in the level of vegetative injury.

[3] = system: Wild type tobacco (nontransformed control plants); assay: Whole plant glyphosate spray test (track sprayer); type: in vivo
Method: as §1, §2

EPSPS enzyme [4] = type: biochemical
Method: (§3) Methods for the analysis of EPSPS enzyme activity are described in Padgette et al. (J. Biol. Chem. (1988)263:1798-1802 and Arch. Biochem. Biophys. (1987)258:564-573) and Wibbenmeyer et al. (Biochem. Biophys. Res. Commun. (1988)153:760-766).
(§4) In addition, other transplastomic lines were analyzed for tolerance to spraying with various levels of glyphosate as described above. Specific activity is measured as the amount of exogenously added Phosphoenol pyruvate (PEP) converted to […] per unit protein in the plant extract. Addition of glyphosate tests sensitivity of the EPSPS enzyme to glyphosate.

EPSPS enzyme [5] = molecular target: T1, EPSPS enzyme (Agrobacterium sp., UniProt Q9R4E4); type: biochemical
T1 construct: from tissue; host or cells: extracts of wild-type and transplastomic tobacco plants
Method: as §3, §4

[6] = system: transplastomic tobacco lines containing EPSPS genes; assay: In vitro glyphosate selection of shoots from plastid transformation with EPSPS constructs; type: cell-based
Method: (§5) A transplastomic tobacco line homoplasmic for the construct pMON38773 was tested in vitro to determine the highest level of glyphosate tolerance. Explant tissue was prepared from leaf pieces of nontransgenic wild type tobacco control, Havanna, plants and the homoplasmic tobacco line 38773-6 and cultured for regeneration of shoots on TSO medium (described above) supplemented with glyphosate levels of 50 μM, 75 μM, 100 μM, 150 μM and 200 μM. The number of explants producing shoots was determined at 3 weeks and 6 weeks after explant preparation and culturing on glyphosate containing medium.
Additional transplastomic lines were tested in vitro for glyphosate tolerance as bed above.
The numbers in parentheses are the number of shoots resistant to selection at 1 mM glyphosate.

[7] = system: homoplasmic tobacco line 38773-6; assay: In vitro glyphosate tolerance: shoot regeneration from leaf explants on TSO medium with glyphosate; type: cell-based, Nicotiana tabacum cv. Havana
Method: as §5

[8] = system: nontransgenic wild type tobacco control, Havanna; assay: as above; type: cell-based, Nicotiana tabacum cv. Havana; conditions: for Number Regenerating 3 Weeks / Number Regenerating 6 Weeks: 10 explants
Method: as §5

[9] = system: transplastomic (and nuclear pMON10154) tobacco lines expressing EPSPS; assay: Glyphosate spray tolerance of other lines expressing EPSPS; type: in vivo
Method: as §1, §4

Nb2 cell line = assay: Nb2 cell proliferation bioactivity assay (MTS); type: cell-based; conditions: pH adjusted and centrifuged extract of pMON38794 tobacco, 48 hrs, MTS (FIG. 5)
Method: Bioactivity of the pH adjusted and centrifuged extract was tested using cells from an Nb2 cell line. These cells proliferate in the presence of growth hormone and other […] type compounds. The assay involves putting various concentrations of growth hormone-containing extract into a 96 well plate. Then a constant amount of cells are added to each well. The plate is incubated for 48 hrs and then a reagent called MTS is added. Metabolizing cells take up the MTS and convert it to a blue colored substance. The more cells there are the more blue color in the well. The blue color is measured using a spectrophotometer. The number of cells should be proportional to the concentration of growth hormone in the media. At some high concentration one expects that the cells will become saturated with growth hormone and that the dose response will level off. At very low hGH concentrations essentially no enhanced growth is seen.

[10] = line 38773-6, glyphosate 50 μM, 8 explants
[11] = line 38773-6, glyphosate 75 μM, 18 explants
[12] = line 38773-6, glyphosate 100 μM, 17 explants
[13] = line 38773-6, glyphosate 150 μM, 18 explants
[14] = line 38773-6, glyphosate 200 μM, 16 explants
[15] = line pMON10154 (nuclear), glyphosate spray
[16] = line pMON30123, glyphosate spray
[17] = line pMON30130, glyphosate spray
[18] = line pMON38773, glyphosate spray
[19] = line pMON38798, glyphosate spray
[20] = line pMON45201, glyphosate spray

T1 sequence (Q9R4E4 whole entry): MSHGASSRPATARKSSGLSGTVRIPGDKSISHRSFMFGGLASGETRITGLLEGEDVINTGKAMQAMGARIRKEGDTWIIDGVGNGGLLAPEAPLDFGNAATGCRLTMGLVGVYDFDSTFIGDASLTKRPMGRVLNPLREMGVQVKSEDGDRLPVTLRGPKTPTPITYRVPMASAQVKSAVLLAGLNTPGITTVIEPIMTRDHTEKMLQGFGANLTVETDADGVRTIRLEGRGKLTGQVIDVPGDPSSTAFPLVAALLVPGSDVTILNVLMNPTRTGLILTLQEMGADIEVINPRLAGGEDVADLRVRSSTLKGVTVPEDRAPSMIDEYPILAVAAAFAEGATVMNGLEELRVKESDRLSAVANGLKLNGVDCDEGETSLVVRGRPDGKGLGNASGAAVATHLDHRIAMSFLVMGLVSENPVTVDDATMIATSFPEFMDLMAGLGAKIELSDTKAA

## CNc1cnn(-c2cccc(C(F)(F)F)c2)c(=O)c1Cl [Norflurazon]
[1]; control plants
  Norflurazon resistance: susceptible
[1]; line 74-1B-P (homoplasmic 5177)
  Result (Norflurazon resistance): Resistant
[1]; line 74-2-A (homoplasmic 5177)
  Result (Norflurazon resistance): Resistant
[1]; line 74-7-C (homoplasmic 5177)
  Result (Norflurazon resistance): Resistant
[1]; line 75-5D-A (Control)
  Result (Norflurazon resistance): Susceptible
[1]; line 2560A Xanthi (Control)
  Result (Norflurazon resistance): Susceptible
[1]; line Xanthi (Control), plants grown seven weeks
  Result (Norflurazon resistance): Susceptible
[1]; three homoplasmic 5177 tobacco lines
  Norflurazon resistance: resistant

## O=C(O)CNCP(=O)(O)O [glyphosate, N-phosphonomethylglycine]
[2]; initial results, homoplasmic tobacco lines sprayed
  glyphosate concentration tolerated (vegetative tissue injury): 16 oz/acre
[2]; transplastomic lines, spray
  glyphosate rate with a good level of tolerance: 32 oz/acre
[3]; Wild-type, glyphosate spray
  Reproductive tolerance (oz/acre): 0 oz/acre
  Vegetative tolerance (oz/acre): 0 oz/acre
[3]; nontransformed control plants, glyphosate concentrations as low as 16 oz/acre
  susceptibility to sprayed glyphosate: highly susceptible
EPSPS enzyme [4]; Wild-type plant extract, No gly: 3.4
  SPECIFIC ACTIVITY (nmol/min/mg) +1 mM gly: 0 nmol/min/mg
EPSPS enzyme [4]; line pMON30123 extract, No gly: 4.0
  SPECIFIC ACTIVITY (nmol/min/mg) +1 mM gly: 0 nmol/min/mg
EPSPS enzyme [4]; line pMON30130 extract, No gly: 6.2
  SPECIFIC ACTIVITY (nmol/min/mg) +1 mM gly: 0 nmol/min/mg
EPSPS enzyme [4]; line pMON38798 extract, No gly: 17.2
  SPECIFIC ACTIVITY (nmol/min/mg) +1 mM gly: 14.7 nmol/min/mg
EPSPS enzyme [4]; line pMON45204 extract, No gly: 339.9
  SPECIFIC ACTIVITY (nmol/min/mg) +1 mM gly: 371.8 nmol/min/mg
EPSPS enzyme [5]; line pMON10154 (nuclear CP4 control) extract, No gly: 19.0
  SPECIFIC ACTIVITY (nmol/min/mg) +1 mM gly: 18.4 nmol/min/mg
EPSPS enzyme [5]; line pMON38773 extract, No gly: 16.7
  SPECIFIC ACTIVITY (nmol/min/mg) +1 mM gly: 6.7 nmol/min/mg
[6]; in vitro selection, Table 5 lines
  glyphosate selection level tolerated by generated tobacco lines: 1 mM
[6]; pMON38766 (T7), 6 Spec/strep (+) shoots
  No. of shoots Gly 50 uM(+): 0
[6]; pMON38766 (Wild), 1 Spec/strep (+) shoot
  No. of shoots Gly 50 uM(+): 0
[6]; pMON38773 (Wild), 9 Spec/strep (+) shoots
  No. of shoots Gly 50 uM(+): 5
[6]; pMON38773 (Wild), number in parentheses
  No. of shoots positive at 1 mM glyphosate: 1
[6]; pMON38793, 8 Spec/strep (+) shoots
  No. of shoots Gly 50 uM(+): 0
[6]; pMON38796, 4 Spec/strep (+) shoots
  No. of shoots Gly 50 uM(+): 0
[6]; pMON38797 (Wild), 2 Spec/strep (+) shoots
  No. of shoots Gly 50 uM(+): 0
[6]; pMON38798, 6 Spec/strep (+) shoots
  No. of shoots Gly 50 uM(+): 6
[6]; pMON45201, 9 Spec/strep (+) shoots
  No. of shoots Gly 50 uM(+): 3
[7]; line 38773-6, glyphosate 50 μM
  % Explant Regeneration: 100%
[7]; [10]
  Number Regenerating 3 Weeks: 5
  Number Regenerating 6 Weeks: 8
[7]; line 38773-6, glyphosate 75 μM
  % Explant Regeneration: 100%
[7]; [11]
  Number Regenerating 3 Weeks: 14
  Number Regenerating 6 Weeks: 18
[7]; line 38773-6, glyphosate 100 μM
  % Explant Regeneration: 88%
[7]; [12]
  Number Regenerating 3 Weeks: 12
  Number Regenerating 6 Weeks: 15
[7]; line 38773-6, glyphosate 150 μM
  % Explant Regeneration: 89%
[7]; [13]
  Number Regenerating 3 Weeks: 10
  Number Regenerating 6 Weeks: 16
[7]; line 38773-6, glyphosate 200 μM
  % Explant Regeneration: 86%
[7]; [14]
  Number Regenerating 3 Weeks: 8
  Number Regenerating 6 Weeks: 15
[7]; tobacco expressing EPSPS in plastids (pMON38773), shoot regeneration
  glyphosate level tolerated in vitro: at least 200 μM
[8]; glyphosate 50 μM
  % Explant Regeneration: 0%
  Number Regenerating 3 Weeks: 0
  Number Regenerating 6 Weeks: 0
[8]; glyphosate 75 μM
  % Explant Regeneration: 0%
  Number Regenerating 3 Weeks: 0
  Number Regenerating 6 Weeks: 0
[8]; glyphosate 100 μM
  % Explant Regeneration: 0%
  Number Regenerating 3 Weeks: 0
  Number Regenerating 6 Weeks: 0
[8]; glyphosate 150 μM
  % Explant Regeneration: 0%
  Number Regenerating 3 Weeks: 0
  Number Regenerating 6 Weeks: 0
[8]; glyphosate 200 μM
  % Explant Regeneration: 0%
  Number Regenerating 3 Weeks: 0
  Number Regenerating 6 Weeks: 0
[9]; [15]
  Reproductive tolerance (oz/acre): 64 oz/acre
  Vegetative tolerance (oz/acre): 128 oz/acre
[9]; [16]
  Reproductive tolerance (oz/acre): 0 oz/acre
  Vegetative tolerance (oz/acre): 0 oz/acre
[9]; [17]
  Reproductive tolerance (oz/acre): 0 oz/acre
  Vegetative tolerance (oz/acre): 0 oz/acre
[9]; [18]
  Reproductive tolerance (oz/acre): 16 oz/acre
  Vegetative tolerance (oz/acre): 32 oz/acre
[9]; [19]
  Reproductive tolerance (oz/acre): 16 oz/acre
  Vegetative tolerance (oz/acre): 32 oz/acre
[9]; [20]
  Reproductive tolerance (oz/acre): 32 oz/acre
  Vegetative tolerance (oz/acre): 32 oz/acre
[9]; subsequent experiments with additional transformed transplastomic lines
  glyphosate level tolerated: 64 oz/acre

## hGH: Human Growth Hormone expressed from tobacco plastids (pMON38794), tested as pH adjusted and centrifuged leaf extract
Nb2 cell line
  bioactivity: absorbance vs hGH concentration: sigmoidal shape
